Results on 10 compounds are retold here after patent publication US7737143B2, “Substituted pyrazines as kinase inhibitors” (YM Biosciences Australia Pty Ltd, priority 2003, dated 2010).

Holding throughout (assay type): biochemical
Assay [1] has as its target T1, human JAK3 (Homo sapiens, UniProt P52333).
T1 construct: The kinase domain of human JAK3 was amplified from U937mRNA; His tag (pFastBac HTb vector; nickel chelate purification) (N); made in house; host or cells: baculovirus; Sf9 for virus, High Five insect cells for production
In words: JAK kinase assay (ELISA or Alphascreen), Jak3. The conditions noted are these: standard conditions, read-out: Jak3 inhibition of enzyme activity. The source says:
The kinase domain of human JAK3 was amplified from U937mRNA using the polymerase chain reaction with the following primers: […]
JAK3 PCR products were cloned into the pFastBac HTb expression vector (Gibco) via the Xho I and Kpn I sites. The JAK3 plasmid was then transformed into competent DH10Bac cells (Gibco), and the recombinant baculovirus produced prepared for transfection into Sf9 insect cells.
(§1) Baculovirus preparations from each of the JAK family members were infected into five litres of High Five cells (Invitrogen) grown in High Five serum free medium (Invitrogen) to a cell density of approximately 1-2×10^6 cells/ml. Cells are infected with virus at a MOI of 0.8-3.0. Cells were harvested and lysed. JAK kinase domains were purified by affinity chromatography on a Probond (Invitrogen) nickel chelate affinity column.
(§2) Kinase assays were performed either in a 96 well capture-based ELISA assay or in 384 well Optiplates (Packard) using an Alphascreen Protein Tyrosine Kinase kit. In either case using approximately 15 μg of affinity purified PTK domain in the presence of 50 mM HEPES, pH 7.5, 10 mM MgCl2 150 mM NaCl and 10 μM-1 mM ATP. The biotinylated substrate biotin-EGPWLEEEEEAYGWMDF-NH2 (final concentration 5 μM) was used as substrate. In the ELISA assay tyrosine phosphorylation was quantitated following transfer to an avidin coated ELISA plate using peroxidase-linked anti-phospho-tyrosine antibody PY20. In the Alphascreen assay, Alphascreen phosphotyrosine acceptor beads followed by streptavidin donor beads were added under subdued light. The ELISA plates were read on a BMG Fluorostar, the Alphascreen plates were read on a Packard Fusion Alpha. Inhibitors were added to the assays fifteen minutes prior to the addition of ATP. Inhibitors were added in aqueous DMSO, with DMSO concentrations never exceeding 1%.
(In an ELISA, binding on a coated surface is turned into a signal by an enzyme label.)

In assay [2] the target is T2, human JAK2 (Homo sapiens, UniProt O60674).
T2 construct: The kinase domain of human JAK2 was amplified from U937mRNA; His tag (pFastBac HTc vector; nickel chelate purification) (N); made in house; host or cells: baculovirus; Sf9 for virus, High Five insect cells for production
In words: JAK kinase assay (ELISA or Alphascreen), Jak2. The note with it: standard conditions, read-out: Jak2 inhibition of enzyme activity.
Description: The kinase domain of human JAK2 was amplified from U937mRNA using the polymerase chain reaction with the following primers: […]
JAK2 PCR products were cloned into the pFastBac HTc expression vector (Gibco) via the Sal I and Not I sites. The JAK2 plasmid was then transformed into competent DHL10Bac cells (Gibco), and the recombinant baculovirus produced prepared for transfection into Sf9 insect cells.
as §1, §2

Assay [3] concerns the target T3, abl (Homo sapiens, UniProt P00519).
T3 sequence (P00519 242-493 limits assumed): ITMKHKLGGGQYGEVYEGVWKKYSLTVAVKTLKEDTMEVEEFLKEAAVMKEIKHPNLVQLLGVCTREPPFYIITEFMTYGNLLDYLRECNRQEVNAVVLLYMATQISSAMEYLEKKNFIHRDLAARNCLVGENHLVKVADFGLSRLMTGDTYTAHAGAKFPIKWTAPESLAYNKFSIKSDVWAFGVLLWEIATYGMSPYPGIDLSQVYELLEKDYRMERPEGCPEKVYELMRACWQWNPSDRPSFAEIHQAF
In words: Kinase assay (ELISA or Alphascreen), abl. The note with it: standard conditions, read-out: abl inhibition of enzyme activity. The protocol: as §2

Assay [4] deals with T4, zap70 (Homo sapiens, UniProt P43403).
T4 sequence (P43403 338-600 limits assumed): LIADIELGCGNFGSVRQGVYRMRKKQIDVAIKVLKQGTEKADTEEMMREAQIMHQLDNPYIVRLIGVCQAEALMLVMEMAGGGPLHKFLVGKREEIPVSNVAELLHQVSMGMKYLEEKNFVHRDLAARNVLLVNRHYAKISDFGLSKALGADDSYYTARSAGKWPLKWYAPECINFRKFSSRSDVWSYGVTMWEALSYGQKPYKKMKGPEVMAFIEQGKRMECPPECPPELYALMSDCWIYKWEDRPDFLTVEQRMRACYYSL
In words: Kinase assay (ELISA or Alphascreen), zap70. The conditions noted are these: standard conditions, read-out: zap70 inhibition of enzyme activity. The protocol: as §2

The target of assay [5] is hck (Homo sapiens, UniProt P08631). In words: Kinase assay (ELISA or Alphascreen), hck. The note with it: standard conditions, read-out: hck inhibition of enzyme activity. The protocol: as §2
Assay [6] has as its target kdr (Homo sapiens, UniProt P35968). The assay can be described thus: Kinase assay (ELISA or Alphascreen), kdr. The conditions noted are these: standard conditions, read-out: kdr inhibition of enzyme activity. The protocol:
as §2

The target of assay [7] is btk (Homo sapiens, UniProt Q06187). The assay can be described thus: Kinase assay (ELISA or Alphascreen), btk. The note with it: standard conditions, read-out: btk inhibition of enzyme activity. The procedure: as §2
Assay [8] addresses T5, fms (Homo sapiens, UniProt P07333).
T5 sequence (P07333 582-910 limits assumed): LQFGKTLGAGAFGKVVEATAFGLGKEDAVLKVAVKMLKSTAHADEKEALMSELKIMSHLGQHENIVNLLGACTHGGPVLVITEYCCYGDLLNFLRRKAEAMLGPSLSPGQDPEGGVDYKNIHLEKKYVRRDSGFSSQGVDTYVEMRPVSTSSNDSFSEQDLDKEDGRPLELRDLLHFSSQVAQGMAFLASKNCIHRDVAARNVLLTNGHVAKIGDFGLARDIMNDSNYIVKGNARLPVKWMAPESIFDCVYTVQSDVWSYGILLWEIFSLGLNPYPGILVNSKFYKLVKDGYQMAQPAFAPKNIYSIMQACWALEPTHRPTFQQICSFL
In words: Kinase assay (ELISA or Alphascreen), fms. The conditions noted are these: standard conditions, read-out: fms inhibition of enzyme activity. The procedure: as §2

The term inhibition denotes the percentage by which the read-out fell short of the control.

T2 sequence (O60674 849-1124 limits assumed): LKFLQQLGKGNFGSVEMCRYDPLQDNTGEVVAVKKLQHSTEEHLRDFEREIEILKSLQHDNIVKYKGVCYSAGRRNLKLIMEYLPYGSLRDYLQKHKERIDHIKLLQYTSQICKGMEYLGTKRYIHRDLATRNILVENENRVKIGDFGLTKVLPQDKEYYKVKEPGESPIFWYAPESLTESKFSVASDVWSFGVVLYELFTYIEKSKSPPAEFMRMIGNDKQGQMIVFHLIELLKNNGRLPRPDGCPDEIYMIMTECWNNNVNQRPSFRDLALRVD
T1 sequence (P52333 822-1111 limits assumed): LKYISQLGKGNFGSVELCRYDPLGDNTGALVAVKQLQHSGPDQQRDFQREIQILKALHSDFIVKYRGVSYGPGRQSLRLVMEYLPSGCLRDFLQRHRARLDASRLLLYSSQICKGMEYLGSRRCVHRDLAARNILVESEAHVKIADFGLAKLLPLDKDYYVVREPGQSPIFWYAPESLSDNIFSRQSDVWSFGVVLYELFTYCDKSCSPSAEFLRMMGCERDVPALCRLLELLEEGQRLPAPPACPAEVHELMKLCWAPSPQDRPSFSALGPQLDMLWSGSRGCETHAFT
Sequence of hck (P08631 262-515 limits assumed, species assumed): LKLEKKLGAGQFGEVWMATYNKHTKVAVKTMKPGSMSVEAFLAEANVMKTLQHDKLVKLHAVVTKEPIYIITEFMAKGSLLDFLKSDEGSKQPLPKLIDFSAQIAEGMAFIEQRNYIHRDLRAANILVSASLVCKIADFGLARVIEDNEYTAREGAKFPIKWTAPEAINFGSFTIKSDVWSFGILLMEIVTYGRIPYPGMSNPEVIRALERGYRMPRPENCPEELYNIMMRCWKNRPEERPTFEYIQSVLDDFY
Sequence of btk (Q06187 402-655 limits assumed, species assumed): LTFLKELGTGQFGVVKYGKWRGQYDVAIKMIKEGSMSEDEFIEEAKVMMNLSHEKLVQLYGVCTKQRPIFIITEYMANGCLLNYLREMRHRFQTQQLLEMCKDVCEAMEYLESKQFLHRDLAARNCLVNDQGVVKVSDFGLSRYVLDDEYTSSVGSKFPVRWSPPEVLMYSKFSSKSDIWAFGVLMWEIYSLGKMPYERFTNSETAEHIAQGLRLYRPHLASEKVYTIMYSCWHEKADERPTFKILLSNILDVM
Sequence of kdr (P35968 834-1162 limits assumed, species assumed): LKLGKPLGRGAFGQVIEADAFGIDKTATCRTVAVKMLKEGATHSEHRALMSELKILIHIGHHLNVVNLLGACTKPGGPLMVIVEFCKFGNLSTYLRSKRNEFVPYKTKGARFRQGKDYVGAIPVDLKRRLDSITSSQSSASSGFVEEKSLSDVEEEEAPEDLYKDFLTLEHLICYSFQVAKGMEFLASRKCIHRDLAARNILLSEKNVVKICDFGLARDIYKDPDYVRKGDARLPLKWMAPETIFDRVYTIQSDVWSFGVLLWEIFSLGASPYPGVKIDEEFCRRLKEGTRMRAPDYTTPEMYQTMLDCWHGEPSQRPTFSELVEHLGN

For `CC[C@H](Nc1cncc(-n2cnc3ccccc32)n1)c1ccccc1`, the inhibition at 20 µM in assay [1] is less than 50%; in assay [2], no less than 50%; in assay [3], no less than 50%; in assay [4], no less than 50%.
Consider `C[C@H](Nc1cncc(-n2cnc3cc(NC(=O)N4CCN(C)CC4)ccc32)n1)c1ccccc1`, for which the inhibition at 20 µM was less than 50% in assay [1]; no less than 50% in assay [2]; no less than 50% in assay [5]; no less than 50% in assay [3]; no less than 50% in assay [4]; no less than 50% in assay [6].
With `COc1cc(-c2cncc(-n3cnc4ccccc43)n2)ccc1O`, the figures for the inhibition at 20 µM in assay [1], in assay [2] and in assay [3] were less than 50%, less than 50% and no less than 50%, respectively.
Take `C[C@H](Nc1cncc(-n2cnc3cc(C(=O)NCCCCN4CCOCC4)ccc32)n1)c1ccccc1`: the inhibition at 20 µM in assay [1] is less than 50%; in assay [2], no less than 50%; in assay [3], no less than 50%; in assay [4], no less than 50%.
Turning to `C[C@H](Nc1cncc(-n2cnc3ccc(CO)cc32)n1)c1ccc(F)cc1`, the inhibition at 20 µM in assay [1] was less than 50%; in assay [2], no less than 50%; in assay [7] it was no less than 50%; in assay [5], no less than 50%.
As for `CCNC(=O)Nc1ccc2c(c1)ncn2-c1cncc(N[C@@H](C)c2ccccc2)n1`, the inhibition at 20 µM in assay [1] was less than 50%; in assay [2] it was no less than 50%; in assay [8], no less than 50%.
Take `CC(Nc1cncc(-n2cnc3ccc(C#N)cc32)n1)c1cccnc1` (stereo not drawn): the inhibition at 20 µM in assay [1] is less than 50%; in assay [2] it was less than 50%; in assay [3] it was no less than 50%.
For the compound `N#Cc1ccc2c(c1)ncn2-c1cncc(N[C@H]2CCCc3ccccc32)n1`, the inhibition at 20 µM in assay [1], in assay [2] and in assay [8] was no less than 50% throughout.
Turning to `CC(Nc1cncc(-n2cnc3cc(C#N)ccc32)n1)c1ccccc1F` (stereo not drawn), the inhibition at 20 µM in assay [1], in assay [2] and in assay [8] was no less than 50% each time.
Regarding `CC1CC(Nc2cncc(-n3cnc4cc(C#N)ccc43)n2)c2ccccc21` (stereo not drawn), the inhibition at 20 µM in assay [1], in assay [2] and in assay [8] was no less than 50% in each case.
